Source: ChEMBL document CHEMBL5154740, “Novel Aurora A and Protein Kinase C (α, β1, β2, and θ) Multitarget Inhibitors: Impact of Selenium Atoms on the Potency and Selectivity” (J Med Chem, 2022)

Columns and labels:
[1] = biological target: Mitogen-activated protein kinase 11 (Homo sapiens) (UniProt Q15759); assay: Inhibition of MAPK11 (unknown origin) at 50 nM by Z'LYTE screening method relative to control
[2] = biological target: Hepatocyte growth factor receptor (Homo sapiens) (UniProt P08581); assay: Inhibition of cMet (unknown origin) at 50 nM by Z'LYTE screening method relative to control
[3] = biological target: RAC-alpha serine/threonine-protein kinase (Homo sapiens) (UniProt P31749); assay: Inhibition of AKT1 (unknown origin) at 50 nM by Z'LYTE screening method relative to control
Chain of RAC-alpha serine/threonine-protein kinase (Homo sapiens) (P31749 whole entry): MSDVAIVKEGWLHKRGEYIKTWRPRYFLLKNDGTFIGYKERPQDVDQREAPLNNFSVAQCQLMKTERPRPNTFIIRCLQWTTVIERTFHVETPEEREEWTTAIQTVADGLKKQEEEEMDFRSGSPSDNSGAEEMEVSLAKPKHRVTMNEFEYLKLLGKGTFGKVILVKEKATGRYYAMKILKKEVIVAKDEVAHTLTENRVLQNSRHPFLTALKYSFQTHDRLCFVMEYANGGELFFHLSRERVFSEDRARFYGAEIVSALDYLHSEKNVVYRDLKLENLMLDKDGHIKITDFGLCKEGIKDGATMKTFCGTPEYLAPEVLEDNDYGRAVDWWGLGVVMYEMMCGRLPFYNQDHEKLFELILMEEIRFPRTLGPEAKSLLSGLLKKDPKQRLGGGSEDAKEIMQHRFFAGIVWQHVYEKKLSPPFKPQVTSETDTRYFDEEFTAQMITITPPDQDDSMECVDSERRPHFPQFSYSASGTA

[4] = biological target: Cell division control protein 42 homolog (Homo sapiens) (UniProt P60953); assay: Inhibition of CDC42 delta (unknown origin) at 50 nM by Z'LYTE screening method relative to control
Chain of Cell division control protein 42 homolog (Homo sapiens) (P60953 whole entry, looked up): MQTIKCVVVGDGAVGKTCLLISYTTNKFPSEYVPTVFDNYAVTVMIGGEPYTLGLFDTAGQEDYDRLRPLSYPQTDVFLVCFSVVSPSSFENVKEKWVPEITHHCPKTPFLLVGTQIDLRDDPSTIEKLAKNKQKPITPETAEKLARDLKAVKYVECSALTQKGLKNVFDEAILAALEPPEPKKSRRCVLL

4T1 = assay: Cytotoxicity against mouse 4T1 cells assessed as reduction in cell viability incubated for 96 hrs by MTT assay; format: functional, cell-based; conditions: 4T1, 96 h
[5] = biological target: Mitogen-activated protein kinase 1 (Homo sapiens) (UniProt P28482); assay: Inhibition of MAPK1 (unknown origin) at 50 nM by Z'LYTE screening method relative to control
Chain of Mitogen-activated protein kinase 1 (Homo sapiens) (P28482 whole entry): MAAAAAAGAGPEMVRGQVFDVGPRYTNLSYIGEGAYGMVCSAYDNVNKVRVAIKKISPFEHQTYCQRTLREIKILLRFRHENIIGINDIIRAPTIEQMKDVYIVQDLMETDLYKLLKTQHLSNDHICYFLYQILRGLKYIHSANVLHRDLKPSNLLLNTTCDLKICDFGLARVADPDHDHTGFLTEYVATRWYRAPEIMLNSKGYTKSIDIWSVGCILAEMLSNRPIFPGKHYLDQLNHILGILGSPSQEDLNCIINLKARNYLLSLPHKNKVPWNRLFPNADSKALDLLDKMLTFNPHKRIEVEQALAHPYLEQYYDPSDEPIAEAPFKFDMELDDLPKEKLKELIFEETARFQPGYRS

[6] = biological target: Protein kinase C alpha type (Homo sapiens) (UniProt P17252); assay: Inhibition of PKCalpha (unknown origin) at 50 nM by Z'LYTE screening method relative to control
[7] = biological target: Protein kinase C gamma type (Homo sapiens) (UniProt P05129); assay: Inhibition of PKC gamma (unknown origin) at 50 nM by Z'LYTE screening method relative to control
[8] = biological target: Mitogen-activated protein kinase 8 (Homo sapiens) (UniProt P45983); assay: Inhibition of MAPK8 (unknown origin) at 50 nM by Z'LYTE screening method relative to control
Chain of Mitogen-activated protein kinase 8 (Homo sapiens) (P45983 whole entry): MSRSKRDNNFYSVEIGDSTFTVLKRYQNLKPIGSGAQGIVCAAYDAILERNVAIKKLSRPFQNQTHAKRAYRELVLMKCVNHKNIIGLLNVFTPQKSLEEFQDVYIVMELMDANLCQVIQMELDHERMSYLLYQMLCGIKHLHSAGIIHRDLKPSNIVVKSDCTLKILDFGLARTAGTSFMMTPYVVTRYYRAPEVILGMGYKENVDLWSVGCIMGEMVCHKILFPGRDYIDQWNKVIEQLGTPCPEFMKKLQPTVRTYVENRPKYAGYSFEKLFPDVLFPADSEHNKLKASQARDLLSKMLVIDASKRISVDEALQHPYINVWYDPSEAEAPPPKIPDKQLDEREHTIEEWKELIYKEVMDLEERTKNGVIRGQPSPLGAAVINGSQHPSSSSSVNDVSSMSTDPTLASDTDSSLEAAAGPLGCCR

Homo sapiens = organism: Homo sapiens; assay: Inhibition of CDK1/Cyclin B (unknown origin) at 50 nM by Z'LYTE screening method relative to control
[9] = biological target: Protein kinase C eta type (Homo sapiens, UniProt P24723); assay: Inhibition of PKCeta (unknown origin) at 50 nM by Z'LYTE screening method relative to control
Chain of Protein kinase C eta type (P24723 whole entry): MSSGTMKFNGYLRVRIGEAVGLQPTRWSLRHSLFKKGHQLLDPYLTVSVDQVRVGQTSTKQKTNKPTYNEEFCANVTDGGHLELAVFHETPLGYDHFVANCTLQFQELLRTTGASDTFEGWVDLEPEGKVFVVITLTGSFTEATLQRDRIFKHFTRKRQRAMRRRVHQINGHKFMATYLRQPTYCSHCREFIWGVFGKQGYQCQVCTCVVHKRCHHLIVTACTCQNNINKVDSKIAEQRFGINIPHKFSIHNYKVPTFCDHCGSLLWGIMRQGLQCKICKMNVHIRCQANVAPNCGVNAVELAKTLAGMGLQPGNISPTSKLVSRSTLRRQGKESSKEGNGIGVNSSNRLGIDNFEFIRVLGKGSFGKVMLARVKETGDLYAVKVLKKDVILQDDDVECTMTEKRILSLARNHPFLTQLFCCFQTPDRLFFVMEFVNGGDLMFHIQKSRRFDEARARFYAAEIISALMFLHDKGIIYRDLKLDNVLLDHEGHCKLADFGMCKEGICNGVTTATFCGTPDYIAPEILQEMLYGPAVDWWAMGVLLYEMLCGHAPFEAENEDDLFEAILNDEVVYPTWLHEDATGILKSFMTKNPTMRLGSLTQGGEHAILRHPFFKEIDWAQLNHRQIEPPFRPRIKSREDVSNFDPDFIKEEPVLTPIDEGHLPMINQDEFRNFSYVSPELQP

[10] = biological target: T1, Serine/threonine-protein kinase D1 (Homo sapiens) (UniProt Q15139); assay: Inhibition of PKCmu (unknown origin) at 50 nM by Z'LYTE screening method relative to control
T1 sequence (whole entry): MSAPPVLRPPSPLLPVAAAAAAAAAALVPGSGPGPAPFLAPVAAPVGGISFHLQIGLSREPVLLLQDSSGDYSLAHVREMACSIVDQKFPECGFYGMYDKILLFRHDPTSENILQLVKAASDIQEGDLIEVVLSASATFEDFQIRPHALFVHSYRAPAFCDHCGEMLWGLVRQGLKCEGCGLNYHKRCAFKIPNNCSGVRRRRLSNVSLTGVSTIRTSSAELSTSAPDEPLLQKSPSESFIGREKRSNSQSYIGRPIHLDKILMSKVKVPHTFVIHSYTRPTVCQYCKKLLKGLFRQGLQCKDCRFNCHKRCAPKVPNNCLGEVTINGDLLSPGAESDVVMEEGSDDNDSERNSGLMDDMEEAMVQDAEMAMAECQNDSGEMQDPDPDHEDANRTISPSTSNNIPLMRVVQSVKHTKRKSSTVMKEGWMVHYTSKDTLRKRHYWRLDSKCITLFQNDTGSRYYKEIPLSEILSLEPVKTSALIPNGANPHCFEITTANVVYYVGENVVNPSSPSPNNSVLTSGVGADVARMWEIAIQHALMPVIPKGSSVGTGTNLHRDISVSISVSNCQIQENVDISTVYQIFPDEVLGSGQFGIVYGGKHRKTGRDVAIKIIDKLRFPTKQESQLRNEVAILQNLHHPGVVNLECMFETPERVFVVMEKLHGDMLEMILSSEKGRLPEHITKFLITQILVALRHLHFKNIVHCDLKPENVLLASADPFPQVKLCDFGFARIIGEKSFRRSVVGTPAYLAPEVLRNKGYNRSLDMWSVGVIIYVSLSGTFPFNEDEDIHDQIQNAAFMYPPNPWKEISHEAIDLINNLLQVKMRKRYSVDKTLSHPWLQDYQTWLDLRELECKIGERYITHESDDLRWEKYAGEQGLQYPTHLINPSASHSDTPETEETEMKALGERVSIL

[11] = biological target: T2, Eukaryotic elongation factor 2 kinase (Homo sapiens) (UniProt O00418); assay: Inhibition of EEF2K (unknown origin) at 50 nM by Z'LYTE screening method relative to control
T2 sequence (whole entry): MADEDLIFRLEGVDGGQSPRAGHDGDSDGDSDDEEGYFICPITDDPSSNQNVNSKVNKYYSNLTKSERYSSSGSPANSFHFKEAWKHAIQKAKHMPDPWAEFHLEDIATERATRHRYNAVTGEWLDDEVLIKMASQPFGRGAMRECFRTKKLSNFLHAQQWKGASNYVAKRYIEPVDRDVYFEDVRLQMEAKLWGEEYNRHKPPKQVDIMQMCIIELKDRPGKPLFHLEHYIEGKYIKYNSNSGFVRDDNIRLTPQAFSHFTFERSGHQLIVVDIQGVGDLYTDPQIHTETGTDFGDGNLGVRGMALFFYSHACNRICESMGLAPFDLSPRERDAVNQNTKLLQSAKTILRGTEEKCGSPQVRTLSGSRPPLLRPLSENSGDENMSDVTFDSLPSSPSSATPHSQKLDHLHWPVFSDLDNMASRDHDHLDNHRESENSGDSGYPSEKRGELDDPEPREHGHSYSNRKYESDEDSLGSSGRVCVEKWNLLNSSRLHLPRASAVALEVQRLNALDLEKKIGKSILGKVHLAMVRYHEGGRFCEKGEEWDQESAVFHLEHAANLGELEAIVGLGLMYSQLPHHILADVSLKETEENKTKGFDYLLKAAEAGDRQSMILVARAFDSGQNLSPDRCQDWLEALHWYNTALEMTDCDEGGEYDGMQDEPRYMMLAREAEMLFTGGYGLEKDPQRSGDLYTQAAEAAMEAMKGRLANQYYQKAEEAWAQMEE

[12] = biological target: Receptor tyrosine-protein kinase erbB-2 (Homo sapiens) (UniProt P04626); assay: Inhibition of ERBB2 (unknown origin) at 50 nM by Z'LYTE screening method relative to control
Chain of Receptor tyrosine-protein kinase erbB-2 (Homo sapiens) (P04626 whole entry): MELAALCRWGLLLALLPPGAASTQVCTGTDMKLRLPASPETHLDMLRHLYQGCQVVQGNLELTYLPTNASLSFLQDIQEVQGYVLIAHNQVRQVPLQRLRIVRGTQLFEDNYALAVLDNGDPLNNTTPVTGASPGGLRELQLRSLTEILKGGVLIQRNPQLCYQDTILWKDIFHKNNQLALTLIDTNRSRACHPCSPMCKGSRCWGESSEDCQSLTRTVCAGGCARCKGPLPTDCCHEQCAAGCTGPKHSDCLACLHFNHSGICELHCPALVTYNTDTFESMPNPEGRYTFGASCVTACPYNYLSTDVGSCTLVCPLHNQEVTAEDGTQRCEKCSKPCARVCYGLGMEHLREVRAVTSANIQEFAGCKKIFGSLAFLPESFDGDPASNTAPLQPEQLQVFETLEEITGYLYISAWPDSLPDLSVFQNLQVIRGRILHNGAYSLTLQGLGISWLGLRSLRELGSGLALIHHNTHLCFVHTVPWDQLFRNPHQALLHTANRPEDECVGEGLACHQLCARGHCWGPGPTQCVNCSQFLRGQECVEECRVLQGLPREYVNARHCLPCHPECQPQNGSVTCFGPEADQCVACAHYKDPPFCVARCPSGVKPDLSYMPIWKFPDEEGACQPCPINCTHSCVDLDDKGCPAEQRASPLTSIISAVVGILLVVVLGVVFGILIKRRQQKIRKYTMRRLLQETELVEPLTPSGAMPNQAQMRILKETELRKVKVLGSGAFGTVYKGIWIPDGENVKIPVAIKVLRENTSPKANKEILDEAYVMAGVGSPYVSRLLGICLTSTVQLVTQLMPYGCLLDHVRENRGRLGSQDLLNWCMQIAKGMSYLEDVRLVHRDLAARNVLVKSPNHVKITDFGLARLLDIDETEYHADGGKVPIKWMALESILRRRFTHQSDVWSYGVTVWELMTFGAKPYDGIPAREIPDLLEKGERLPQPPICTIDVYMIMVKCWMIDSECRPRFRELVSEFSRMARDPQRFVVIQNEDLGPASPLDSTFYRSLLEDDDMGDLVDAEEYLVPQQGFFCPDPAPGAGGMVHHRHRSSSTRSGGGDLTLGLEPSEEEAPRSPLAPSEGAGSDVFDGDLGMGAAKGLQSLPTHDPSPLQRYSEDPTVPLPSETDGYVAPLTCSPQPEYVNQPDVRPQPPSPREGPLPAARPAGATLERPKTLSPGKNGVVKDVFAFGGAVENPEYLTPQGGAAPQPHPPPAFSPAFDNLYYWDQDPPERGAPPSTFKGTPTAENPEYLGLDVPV

[13] = biological target: Focal adhesion kinase 1 (Homo sapiens) (UniProt Q05397); assay: Inhibition of FAK (unknown origin) at 50 nM by Z'LYTE screening method relative to control
[14] = biological target: Serine/threonine-protein kinase mTOR (Homo sapiens) (UniProt P42345); assay: Inhibition of FRAP1 (unknown origin) at 50 nM by Z'LYTE screening method relative to control

Chain of Mitogen-activated protein kinase 11 (Homo sapiens) (Q15759 whole entry): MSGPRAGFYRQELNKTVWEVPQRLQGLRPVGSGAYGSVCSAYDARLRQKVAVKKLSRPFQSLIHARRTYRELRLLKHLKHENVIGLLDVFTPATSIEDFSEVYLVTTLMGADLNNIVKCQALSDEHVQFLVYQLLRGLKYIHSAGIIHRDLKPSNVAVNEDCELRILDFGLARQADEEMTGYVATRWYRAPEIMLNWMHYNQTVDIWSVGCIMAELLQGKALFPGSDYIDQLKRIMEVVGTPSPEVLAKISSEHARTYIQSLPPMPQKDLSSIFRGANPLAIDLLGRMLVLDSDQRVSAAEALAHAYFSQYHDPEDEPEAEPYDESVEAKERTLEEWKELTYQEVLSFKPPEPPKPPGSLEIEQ

Row | SMILES | inhibition [1] | inhibition [2] | inhibition [3] | inhibition [4] | inhibition [5] | inhibition [6] | inhibition [7] | inhibition [8] | inhibition (Homo sapiens) | inhibition [9] | inhibition [10] | inhibition [11] | inhibition [12] | inhibition [13] | inhibition [14] | IC50 (4T1)
1 | CCN(CC)CCCC(C)Nc1nc(N2Cc3ccccc3C2=O)nc2[nH]cnc12 (stereo unspecified) | 3% | 2% | 2% | 0% | 2% | 3% | 1% | 0% | 1% | 2% | 0% | 1% | 0% | 0% | 0% | 13.3 µM
2 | O=C1c2ccccc2CN1c1nc(NC2CCCCC2)c2nc[nH]c2n1 | 1% | 0% | 2% | 0% | 2% | 14% | 0% | 0% | 0% | 0% | 6% | 1% | 0% | 0% | 0% | 24.8 µM
3 | O=C1c2ccccc2CN1c1nc(N[C@H]2CC[Se]C2)c2nc[nH]c2n1 | 3% | 0% | 1% | 0% | 0% | 3% | 3% | 0% | 0% | 3% | 1% | 2% | 1% | 0% | 2% | 27.2 µM
4 | O=c1c2ccccc2[se]n1-c1nc(Nc2ccccc2)c2nc[nH]c2n1 | 2% | 0% | 2% | 0% | 1% | 18% | 0% | 0% | 0% | 0% | 3% | 1% | 0% | 0% | 0% | 15.2 µM
5 | O=c1c2ccccc2[se]n1-c1nc(N[C@H]2CCOC2)c2nc[nH]c2n1 | 3% | 0% | 1% | 0% | 2% | 91% | 25% | 0% | 1% | 3% | 0% | 2% | 0% | 0% | 1% | 1.8 µM
6 | CCCNc1nc(-n2[se]c3ccccc3c2=O)nc2[nH]cnc12 | 4% | 1% | 2% | 1% | 1% | 17% | 1% | 0% | 1% | 0% | 0% | 0% | 0% | 0% | 0% | 11.3 µM
7 | O=c1c2ccccc2[se]n1-c1nc(N[C@H]2CC[Se]C2)c2nc[nH]c2n1 | 9% | 0% | 0% | 0% | 9% | 100% | 47% | 0% | 0% | 6% | 7% | 2% | 0% | 0% | 0% | 0.8 µM

More lines, main results first:

Row | inhibition [1] | inhibition [2] | inhibition [3] | inhibition [4] | inhibition [5] | inhibition [6] | inhibition [7] | inhibition [8] | inhibition (Homo sapiens) | inhibition [9] | inhibition [10] | inhibition [11] | inhibition [12] | inhibition [13] | inhibition [14] | SMILES | IC50 (4T1)
8 | 3% | 0% | 2% | 0% | 0% | 68% | 45% | 0% | 0% | 0% | 5% | 1% | 0% | 0% | 0% | O=c1c2ccccc2[se]n1-c1nc(NC2CCCCC2)c2nc[nH]c2n1 | 8.1 µM
9 | 4% | 1% | 0% | 0% | 0% | 8% | 0% | 0% | 0% | 1% | 2% | 2% | 0% | 0% | 0% | O=c1c2ccccc2[se]n1-c1nc(N[C@@H]2C[C@H]3CC[C@@H]2C3)c2nc[nH]c2n1 | 31.8 µM
10 | 0% | 0% | 1% | 0% | 0% | 0% | 2% | 0% | 0% | 4% | 1% | 2% | 0% | 0% | 2% | O=C1c2ccccc2CN1c1nc(NC2CCCC2)c2nc[nH]c2n1 | 16.7 µM
11 | 4% | 1% | 0% | 0% | 1% | 10% | 1% | 0% | 1% | 1% | 1% | 2% | 0% | 0% | 1% | C[C@@H]1[C@H]2C[C@@H](C[C@H]1Nc1nc(-n3[se]c4ccccc4c3=O)nc3[nH]cnc13)C2(C)C | 33.6 µM
